In US9642851B2, “Indolinone derivative as tyrosine kinase inhibitor” (KBP Biosciences Co., Ltd., priority 2012, dated 2017):
Structures can show the parent of a compound that is named as a salt.

Tests used:
HUVEC cells = test: In vitro cellular inhibitory activity, h-VEGF-A stimulated HUVEC proliferation; type: cell-based; conditions: Homo sapiens, h-VEGF-A 10 ng/ml, incubated for 89 hours, absorbance at 490 nm, read-out: ED50 for the HUVEC in vitro cells
Method: (§1) (1) Thawing cells and Passing cells.
(§2) The 3T3 cells were resuspended in a culture medium containing 10% fetal bovine serum, wherein the cell concentration was 5×10^4/ml. The cell suspension was added to a 96-well plate with 100 μL per well, and incubated overnight; the HUVEC cells were resuspended in a culture medium containing 10% heat-inactivated fetal bovine serum, wherein the cell concentration was 7.5×10^4/ml. The cell suspension was added to a 96-well plate with 100 μL per well. • (3) Treating with drugs: the compounds were diluted to different concentrations, and 60 μLh-PDGF-BB (3T3 cells) and 40 ng/ml h-VEGF-A (HUVEC cells) were added and incubated for 1 hour. • (4) 100 μL of a solution containing the compound and h-PDGF-BB (h-VEGF-A, for the HUVEC cells) was added to a cell culture plate, wherein the final concentration of h-PDGF-BB was 10 ng/ml, the final concentration of h-VEGF-A was 10 ng/ml, and the final concentration for the compounds were 10, 3.3333, 1.1111, 0.3704, 0.1235, 0.0412, 0.0137, 0.0046, and 0.0015 μM. The plate was incubated for 40 hours, and the HUVEC cells were incubated for 89 hours. To each well was added 20 μL Promega Substrate, and the plate was incubated at 37° C. for 7.5 hours, and the HUVEC cells were incubated for 11.5 hours. Then the plate was placed in a microplate reader to read the absorbance at 490 nm. • (5) Data processing
(§3) The curve of the compound concentration vs. Net OD was plotted, wherein Net OD=Compound OD−min. OD. ED50 was calculated according to the following equation: Conc. ED50(x)=(y−b)/a, y=Calculated Net OD for IC50, a=slope, b=intercept.

3T3 cells = test: In vitro cellular inhibitory activity, h-PDGF-BB stimulated 3T3 proliferation; type: cell-based; conditions: Mus musculus, NIH3T3; h-PDGF-BB 10 ng/ml, incubated for 40 hours, absorbance at 490 nm; read-out: ED50 for the 3T3 in vitro cells
Method: as §1, §2, §3

PDGFRβ = molecular target: T1, PDGFRβ (Homo sapiens, UniProt P09619); test: In vitro enzymology inhibitory activity (Caliper mobility shift kinase assay); type: biochemical; conditions: reaction 5 hour at 28° C., FAM-labelled peptide and ATP
T1 construct: purchased BPS
T1 sequence (P09619 33-1106): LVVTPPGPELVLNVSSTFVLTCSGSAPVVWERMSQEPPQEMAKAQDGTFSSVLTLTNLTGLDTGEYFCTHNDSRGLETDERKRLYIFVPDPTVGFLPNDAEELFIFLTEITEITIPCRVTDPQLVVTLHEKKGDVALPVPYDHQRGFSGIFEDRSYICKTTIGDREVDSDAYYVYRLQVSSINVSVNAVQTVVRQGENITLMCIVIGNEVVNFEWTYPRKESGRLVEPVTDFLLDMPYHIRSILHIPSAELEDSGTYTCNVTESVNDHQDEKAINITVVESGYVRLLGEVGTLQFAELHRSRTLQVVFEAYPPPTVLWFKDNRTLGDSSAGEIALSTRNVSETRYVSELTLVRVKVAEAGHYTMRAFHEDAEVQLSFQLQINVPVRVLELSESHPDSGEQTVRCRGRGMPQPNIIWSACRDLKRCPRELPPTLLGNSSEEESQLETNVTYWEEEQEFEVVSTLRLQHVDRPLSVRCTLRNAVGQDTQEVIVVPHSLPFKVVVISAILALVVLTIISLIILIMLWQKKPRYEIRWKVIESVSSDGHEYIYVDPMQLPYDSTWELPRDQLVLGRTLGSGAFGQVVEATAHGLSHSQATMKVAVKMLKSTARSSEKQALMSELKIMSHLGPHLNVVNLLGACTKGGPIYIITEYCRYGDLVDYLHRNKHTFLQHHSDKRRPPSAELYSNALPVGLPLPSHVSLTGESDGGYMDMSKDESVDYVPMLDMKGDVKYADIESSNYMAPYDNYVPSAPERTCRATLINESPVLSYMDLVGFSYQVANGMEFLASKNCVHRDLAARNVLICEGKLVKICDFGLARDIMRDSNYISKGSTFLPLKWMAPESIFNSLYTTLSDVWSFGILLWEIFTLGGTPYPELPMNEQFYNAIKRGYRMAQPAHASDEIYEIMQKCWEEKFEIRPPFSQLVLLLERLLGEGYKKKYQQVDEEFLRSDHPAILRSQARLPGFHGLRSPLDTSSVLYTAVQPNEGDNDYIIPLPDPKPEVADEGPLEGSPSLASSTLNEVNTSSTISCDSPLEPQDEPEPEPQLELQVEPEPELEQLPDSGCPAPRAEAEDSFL
Method: (§4) • (1) Preparation of agents and compounds • (1) 1-fold kinase buffer without MnCl2 (50 mM HEPES, pH=7.5, 0.0015% Brij-35, 10 mM MgCl2, 2 mM DTT) • (2) 1-fold kinase buffer with MnCl2 (50 mM HEPES, pH=7.5, 0.0015% Brij-35, 10 mM MgCl2, 10 mM MnCl2, 2 mM DTT); • (3) Termination solution (100 mM HEPES, pH=7.5, 0.015% Brij-35, 0.2% Coating Reagent #3, 50 mM EDTA); • (4) 2.5-fold kinase solution (the VEGFR2, FGFR1, FGFR3, PDGFRβ kinases were added to the 1-fold kinase buffer respectively to prepare the corresponding 2.5-fold kinase solutions); • (5) 2.5-fold substrate solution: FAM-labelled peptide and ATP were added to the 1-fold kinase buffer to prepare a peptide solution; • (6) 4-fold dilution of the compound solution: the compound was accurately weighed, and dissolved in DMSO. The mixture was mixed sufficiently and evenly to prepare a 10 mM solution. Then the solution was diluted with DMSO to 500 μM, and 4-fold serial dilutions were done at 10 concentrations with a highest concentration of 50μM.
(§5) The calculated inhibition ratio (%)=(max. conversion−sample conversion)/(max. conversion−min. conversion)×100
(§6) The curve fitting was done with the software Xlfit to obtain the IC50 value.

VEGFR2 = molecular target: T2, VEGFR2 (Homo sapiens, UniProt P35968); test: as above; type: biochemical; conditions: reaction 1 hour at 28° C., FAM-labelled peptide and ATP
T2 construct: purchased Carna
T2 sequence (P35968 20-1356): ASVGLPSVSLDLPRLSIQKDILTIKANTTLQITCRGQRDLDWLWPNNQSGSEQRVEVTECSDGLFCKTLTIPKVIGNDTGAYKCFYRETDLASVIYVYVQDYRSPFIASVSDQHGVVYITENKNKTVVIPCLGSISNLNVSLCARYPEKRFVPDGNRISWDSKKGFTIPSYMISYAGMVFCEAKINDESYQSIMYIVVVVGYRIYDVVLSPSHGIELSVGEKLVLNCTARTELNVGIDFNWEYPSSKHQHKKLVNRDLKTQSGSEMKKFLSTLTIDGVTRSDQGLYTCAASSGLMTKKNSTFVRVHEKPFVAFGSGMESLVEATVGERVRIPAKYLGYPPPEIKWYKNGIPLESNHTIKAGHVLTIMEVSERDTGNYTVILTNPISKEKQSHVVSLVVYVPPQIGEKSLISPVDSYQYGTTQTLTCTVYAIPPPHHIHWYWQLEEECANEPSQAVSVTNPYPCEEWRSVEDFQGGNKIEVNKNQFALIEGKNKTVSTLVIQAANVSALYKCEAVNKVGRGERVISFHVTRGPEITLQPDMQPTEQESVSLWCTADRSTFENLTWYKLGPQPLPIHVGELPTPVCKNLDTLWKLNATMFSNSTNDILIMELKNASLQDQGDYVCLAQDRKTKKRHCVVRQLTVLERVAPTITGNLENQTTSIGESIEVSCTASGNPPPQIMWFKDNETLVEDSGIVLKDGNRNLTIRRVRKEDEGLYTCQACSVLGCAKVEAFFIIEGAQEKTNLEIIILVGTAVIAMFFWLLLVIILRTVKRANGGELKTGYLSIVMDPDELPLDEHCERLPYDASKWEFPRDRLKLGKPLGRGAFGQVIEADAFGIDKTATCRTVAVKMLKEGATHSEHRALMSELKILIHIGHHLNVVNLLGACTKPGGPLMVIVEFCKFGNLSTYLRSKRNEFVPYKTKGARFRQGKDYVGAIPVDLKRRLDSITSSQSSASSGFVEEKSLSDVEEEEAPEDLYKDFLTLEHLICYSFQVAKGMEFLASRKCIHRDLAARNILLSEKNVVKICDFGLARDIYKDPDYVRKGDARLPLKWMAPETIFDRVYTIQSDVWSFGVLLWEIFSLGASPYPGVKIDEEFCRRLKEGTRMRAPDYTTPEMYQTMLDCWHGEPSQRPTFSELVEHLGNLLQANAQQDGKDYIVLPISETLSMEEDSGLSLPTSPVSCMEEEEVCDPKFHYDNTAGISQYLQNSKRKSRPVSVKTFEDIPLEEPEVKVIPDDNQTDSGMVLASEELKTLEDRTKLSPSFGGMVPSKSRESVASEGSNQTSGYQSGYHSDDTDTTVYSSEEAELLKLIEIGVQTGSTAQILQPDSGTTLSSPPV
Method: as §4, §5, §6

FGFR3 = molecular target: T3, FGFR3 (Homo sapiens, UniProt P22607); test: as above; type: biochemical; conditions: reaction 1 hour at 28° C., FAM-labelled peptide and ATP
T3 construct: purchased Carna
T3 sequence (P22607 23-806): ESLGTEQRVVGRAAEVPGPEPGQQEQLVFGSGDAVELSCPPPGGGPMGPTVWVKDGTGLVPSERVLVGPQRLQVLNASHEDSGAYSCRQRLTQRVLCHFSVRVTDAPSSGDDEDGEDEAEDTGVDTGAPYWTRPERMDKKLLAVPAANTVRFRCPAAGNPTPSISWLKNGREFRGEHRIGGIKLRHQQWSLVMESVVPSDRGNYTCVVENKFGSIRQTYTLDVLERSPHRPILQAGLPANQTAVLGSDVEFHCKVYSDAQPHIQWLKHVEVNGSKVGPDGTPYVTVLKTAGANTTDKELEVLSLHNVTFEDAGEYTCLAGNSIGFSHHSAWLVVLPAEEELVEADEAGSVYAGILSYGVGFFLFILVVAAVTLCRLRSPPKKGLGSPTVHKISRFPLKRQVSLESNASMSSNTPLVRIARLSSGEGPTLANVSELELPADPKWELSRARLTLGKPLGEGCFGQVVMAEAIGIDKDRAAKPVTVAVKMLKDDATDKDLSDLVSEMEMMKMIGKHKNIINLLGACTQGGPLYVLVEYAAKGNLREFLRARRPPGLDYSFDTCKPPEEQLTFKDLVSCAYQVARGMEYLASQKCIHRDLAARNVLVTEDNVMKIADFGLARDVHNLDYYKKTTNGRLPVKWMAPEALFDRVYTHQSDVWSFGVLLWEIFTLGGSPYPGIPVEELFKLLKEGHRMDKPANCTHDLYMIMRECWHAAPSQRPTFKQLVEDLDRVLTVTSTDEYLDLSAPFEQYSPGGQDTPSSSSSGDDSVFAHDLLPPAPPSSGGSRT
Method: as §4, §5, §6

FGFR1 = molecular target: T4, FGFR1 (Homo sapiens, UniProt P11362); test: as above; type: biochemical; conditions: reaction 1 hour at 28° C., FAM-labelled peptide and ATP
T4 construct: purchased Carna
T4 sequence (P11362 22-822): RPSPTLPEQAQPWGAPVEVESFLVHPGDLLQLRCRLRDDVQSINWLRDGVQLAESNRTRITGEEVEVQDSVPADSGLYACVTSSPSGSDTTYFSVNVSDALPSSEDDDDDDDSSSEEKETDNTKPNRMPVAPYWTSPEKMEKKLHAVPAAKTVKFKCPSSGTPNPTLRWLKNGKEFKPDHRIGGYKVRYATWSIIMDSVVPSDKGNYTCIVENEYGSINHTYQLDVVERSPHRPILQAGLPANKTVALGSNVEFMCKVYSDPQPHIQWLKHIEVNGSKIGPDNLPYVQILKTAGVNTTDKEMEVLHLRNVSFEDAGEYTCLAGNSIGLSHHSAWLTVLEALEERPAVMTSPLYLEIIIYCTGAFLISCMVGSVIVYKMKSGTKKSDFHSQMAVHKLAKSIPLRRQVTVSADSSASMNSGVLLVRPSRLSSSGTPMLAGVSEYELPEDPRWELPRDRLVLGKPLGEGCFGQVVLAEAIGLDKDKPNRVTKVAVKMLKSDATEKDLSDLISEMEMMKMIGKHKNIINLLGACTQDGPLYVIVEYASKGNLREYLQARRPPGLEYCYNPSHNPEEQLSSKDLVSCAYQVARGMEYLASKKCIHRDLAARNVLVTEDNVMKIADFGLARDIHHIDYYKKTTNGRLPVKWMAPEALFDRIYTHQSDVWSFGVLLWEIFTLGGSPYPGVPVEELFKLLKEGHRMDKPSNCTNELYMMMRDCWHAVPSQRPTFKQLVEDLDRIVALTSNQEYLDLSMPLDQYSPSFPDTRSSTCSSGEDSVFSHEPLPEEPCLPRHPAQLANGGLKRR
Method: as §4, §5, §6

SMILES | EC50 (HUVEC cells) [nM] | EC50 (3T3 cells) [nM] | IC50 (PDGFRβ) [nM] | IC50 (VEGFR2) [nM] | IC50 (FGFR3) [nM] | IC50 (FGFR1) [nM]
COC(=O)c1ccc2c(c1)NC(=O)/C2=C(\Nc1ccc2c(c1)CCN2C(=O)CN1CCN(C)CC1)c1ccccc1 [Compound 1] | 56 to 84 | 60 to 80 | 7.6 | 17 | 230 | 100
COC(=O)c1ccc2c(c1)NC(=O)/C2=C(\Nc1ccc2c(c1)CCN2C(=O)CN1CCOCC1)c1ccc(F)cc1 [Compound 9 hydrochloride, methyl(Z)-3-((4-fluorophenyl)(1-(2-morpholinylacetyl)indolin-5-ylamino)methylene)-2-oxoindoline-6-carboxylate] | 130 to 190 |  | 85 | 770 | 9800 | 
CCOC(=O)c1ccc2c(c1)NC(=O)/C2=C(\Nc1ccc2c(c1)CCN2C(=O)CN1CCOCC1)c1ccccc1 [Compound 10 hydrochloride, ethyl(Z)-3-((1-(2-morpholinylacetyl)indolin-5-ylamino)(phenyl)methylene)-2-oxoindoline-6-carboxylate] | 90 to 140 |  | 65 | 630 | 5300 | 7960
